Test results taken from patent publication US20100035865A1, “Sulfonamides and Pharmaceutical Compositions Thereof” (PFIZER INC, priority 2007, published 2010).
“And” between values parts separate entries of the source, which are not always exact repeats. Identical values can stand only once. Like-named read-outs stand apart in the source and are kept apart here.

Columns and labels:
[1] = system: AMPA receptors; test: AMPA ES Cell FLIPR Screen, G7330A (single dose % effect); format: cell-based, murine; conditions: Dose 32.0 uM; mean (range and n in cells below); ES cell-derived neurons, 32 uM AMPA challenge; negative control AMPA alone, positive control AMPA plus cyclothiazide
Description: (§1) The murine ES cell line used was E14-Sx1-16C, which has a targeted mutation in the Sox1 gene, a neuroectodermal marker, that offers G418 resistance when the Sox1 gene is expressed (Stem Cell Sciences). ES cells were maintained undifferentiated as previously described (Roach). […] ES cells were plated on gelatin-coated dishes (BD Biosciences), the media was changed daily and the cells were dissociated with 0.05% Trypsin EDTA (Invitrogen) every other day.
(§2) Embryoid Body Formation: Prior to embryoid body (EB) formation the ES cells were weaned from FBS onto Knockout Serum Replacement (KSR) (Invitrogen). To form EBs, ES cells were dissociated into a single cell suspension then 3×10^6 cells were plated in bacteriology dishes (Nunc 4014) and grown as a suspension culture in NeuroEB-I medium that consisted of Knockout™ D-MEM (Invitrogen), supplemented with 10% KSR (Invitrogen), 0.2 mM L-Glutamine (Invitrogen), 0.1 mM MEM non-essential amino acids (Invitrogen), 30 μg/ml Gentamicin (Invitrogen), 1000 u/ml ESGRO (Chemicon), 0.1 mM 2-Mercaptoethanl (Sigma) and 150 ng/ml Transferrin (Invitrogen). The plates were put on a Stovall Belly Button shaker in an atmospheric oxygen incubator. The media was changed on day 2 of EB formation with NeuroEB-I and on day 4 with NeuroEB-II (NeuroEB-I plus 1 μg/ml mNoggin [R&D Systems]).
(§3) Neuronal Precursor Selection and Expansion: On day 5 of EB formation, EBs were dissociated with 0.05% Trypsin EDTA, and 4×10^6 cells/100 mm dish were plated on Laminin coated tissue culture dishes in NeuroII-G418 medium that consisted of a base medium of a 1:1 mixture of D-MEM/F12 supplemented with N2 supplements and NeuroBasal Medium supplemented with B27 supplement and 0.1 mM L-Glutamine (all from Invitrogen). The base medium was then supplemented with 10 ng/ml bFGF (Invitrogen), 1 μg/ml mNoggin, 500 ng/ml SHH-N, 100 ng/ml FGF-8b (R&D Systems), 1 μg/ml Laminin and 200 μg/ml G418 (Invitrogen) for selection of neuronal precursors expressing Sox-1. The plates were put in an incubator that contained 2% Oxygen and were maintained in these conditions. During the 6-day selection period, the NeuroII media was changed daily. On day 6, the surviving neuronal precursor foci were dissociated with 0.05% Trypsin EDTA and the cells were plated at a density of 1.5×10^6 cells/100 mm Laminin coated dish in NeuroII-G418 medium. The cells were dissociated every other day for expansion, and prepared for Cryopreservation at passage 3 or 4. The cryopreservation medium contained 50% KSR, 10% Dimethyl Sulfoxide (DMSO) (Sigma) and 40% NeuroI-G418I medium. Neuronas precursors were crypreserved at a concentration of 4×10^6cells/ml and 1 ml/cryovial in a controlled rate freezer overnight then transferred to an ultra-low freezer or liquid nitrogen for long-term storage,
(§4) Neuronal Differentiation: Cryopreserved ES cell-derived neuronal precursors were thawed by the rapid thaw method in a 37-degree water-bath. The cells were transferred from the cryovial to a 100 mm Laminin coated tissue culture dish that already contained NeuroII-G418 that had been equilibrated in a 2% Oxygen incubator. The media was changed with fresh NeuroII-G418 the next day. The cells were dissociated every other day as described above for expansion to generate enough cells to plate for the screen. For the screen, the cells were plated into 384-well poly-d-lysine coated tissue culture dishes (BD Biosciences) by the automated SelecT at a cell density of 6K cells/well in differentiation medium NeuroIII that contained a 4:1 ratio of the NeuroBasalMedium/B27:D-MEM/F12/N2 supplemented with 1 μM cAMP (Sigma), 200 μM Ascorbic Acid (Sigma), 1 μg/ml Laminin (Invitrogen) and 10 ng/ml BDNF (R&D Systems). The plates were put in an incubator with 2% Oxygen and allowed to complete the differentiation process for 7 days. The cells could then be used over a 5-day period for the high throughput screen.
(§5) Procedure for AMPA ES Cell FLIPR Screen […]

[2] = system: AMPA receptors; test: AMPA ES Cell FLIPR Screen, G7330B (EC50 and % effect); format: cell-based, murine; conditions: for EC50: ES cell-derived neurons, 32 uM AMPA challenge
Description: as §1, §2, §3, §4, §5

[3] = Dose 32.0 uM, individual determinations
[4] = individual determinations, read-out: G7330B (U): EC50
[5] = mean of individual determinations (range and n in cells below), read-out: G7330B mean EC50
[6] = Dose 31.6 uM, individual determinations

SMILES | G7330A: % Effect [1] [%] | G7330B (U): % Effect [2, 3] | EC50 [2, 4] | EC50 [2, 5] [µM] | G7330B (U): % Effect [2, 6]
CS(=O)(=O)N[C@@H]1CNCC[C@H]1c1ccc(-c2ccccc2)cc1 (relative stereo) [Example 8, N-(trans-4-Biphenyl-4-yl-piperidin-3-yl)-methanesulfonamide] | 56.3 | 62.1% and 46.9% and 54.7% and 34.7% and 36.6% and 38.0% | > 32 µM | > 32 | 
CC(C)S(=O)(=O)N[C@@H]1CNCC[C@H]1c1ccc(-c2ccccc2)cc1 (relative stereo) [Example 1, propane-2-sulfonic acid (trans-4-biphenyl-4-yl-piperidin-3-yl)-amide] | 87.1 | 86.8% and 115% and 132% and 92.5% and 85.0% | 16.8 µM and 11.1 µM and 12.5 µM | 13.2 | 
CC(C)S(=O)(=O)N[C@@H]1CN(C)CC[C@@H]1c1ccc(-c2ccccc2)cc1 (relative stereo) [Example 7, propane-2-sulfonic acid (cis-4-biphenyl-4-yl-1-methyl-piperidin-3-yl)-amide] | −0.867 |  |  |  | −0.0209% and −0.612% and −1.41% and −1.42%
CC(C)S(=O)(=O)NC1CCOCC1c1ccc(-c2ccccc2)cc1 (stereo not drawn) [Example 17, Propane-2-sulfonic acid(cis-3-biphenyl-4-yl-tetrahydro-pyran-4-yl)-amide] |  | 150% and 138% and 125% | 7.17 µM | 7.17 | 
O=S(=O)(CC(F)(F)F)NC1CNCCC1c1ccc(-c2ccccc2)cc1 (stereo not drawn) [Example 13, 2,2,2-Trifluoro-ethanesulfonic acid(trans-4-biphenyl-4-yl-piperidin-3-yl)-amide] | 43.7 | 27.9% and 46.2% and 59.8% and 48.9% and 30.2% and 28.1% | > 32 µM | > 32 | 
CC(C)S(=O)(=O)NC1CCNCC1c1ccc(-c2ccc(C#N)cc2)cc1 (stereo not drawn) [Example 19, Propane-2-sulfonic acid[trans-3-(4′-cyano-biphenyl-4-yl)-piperidin-4-yl]-amide] |  | 6.07% and 7.12% and 6.19% | > 32 µM | > 32 | 
CC(C)S(=O)(=O)N[C@@H]1CCN(C)C[C@H]1c1ccc(NC(=O)c2cc(F)cc(F)c2)cc1 (relative stereo) [Example 45, 3,5-Difluoro-N-{4-[trans-1-methyl-4-(propane-2-sulfonylamino)-piperidin-3-yl]-phenyl}-benzamide] |  |  | > 31.6 µM | > 31.6 | −0.114% and 0.0432% and −0.344%
CC(C)S(=O)(=O)NC1CCN(C)CC1c1ccc(-c2ccc(C#N)cc2)cc1 (stereo not drawn) [Example 24, Propane-2-sulfonic acid[trans-3-(4′-cyano-biphenyl-4-yl)-1-methyl-piperidin-4-yl]-amide] |  |  | > 31.6 µM | > 31.6 | 14.5% and 19.9% and 12.7%
CC(C)S(=O)(=O)NC1CCN(C)CC1c1ccc(-c2ccccc2)cc1 (stereo not drawn) [Example 25, Propane-2-sulfonic acid(trans-3-biphenyl-4-yl-1-methyl-piperidin-4-yl)-amide] |  | −0.323% and 0.295% and 2.72% | > 32 µM | > 32 | 
CC(C)S(=O)(=O)N[C@H]1CN(C)CC[C@@H]1c1ccc(-c2ccccc2)cc1 [Example 3, Propane-2-sulfonic acid ((3R,4R)-4-biphenyl-4-yl-1-methyl-piperidin-3-yl)-amide] |  | 99.8% and 94.3% and 83.1% and 129% and 98.9% and 119% |  | > 4.2 | 
CNC(=O)c1ccc(-c2ccc([C@@H]3CCOC[C@H]3NS(=O)(=O)C(C)C)cc2)cc1 (relative stereo) [Example 38, 4′-[trans-3-(Propane-2-sulfonylamino)-tetrahydro-pyran-4-yl]-biphenyl-4-carboxylic acid methylamide] |  |  | > 10 µM | > 10 | 
CCOc1ccccc1-c1ccc(C2CCOCC2NS(=O)(=O)C(C)C)cc1 (stereo not drawn) [Example 33, Propane-2-sulfonic acid[trans-4-(2′-ethoxy-biphenyl-4-yl)-tetrahydro-pyran-3-yl]-amide] |  |  | 1.94 µM | 1.94 | 122% and 121%
CC(C)S(=O)(=O)N[C@@H]1CCN(C)C[C@H]1c1ccc(NC(=O)c2ccccc2)cc1 (relative stereo) [Example 44, N-{4-[trans-1-Methyl-4-(propane-2-sulfonylamino)-piperidin-3-yl]-phenyl}-benzamide] |  |  | > 31.6 µM | > 31.6 | 1.85% and 1.10% and 5.81%
CC(C)S(=O)(=O)NC1COCCC1c1ccc(-c2ccc(F)cc2)cc1 (stereo not drawn) [Example 32, Propane-2-sulfonic acid[trans-4-(4′-fluoro-biphenyl-4-yl)-tetrahydro-pyran-3-yl]-amide] |  |  | 2.57 µM | 2.57 | 120% and 127% and 115%
CC(C)S(=O)(=O)N[C@@H]1CN(C)CC[C@H]1c1ccc(-c2ccccc2)cc1 [Example 4, Propane-2-sulfonic acid ((3S,4S)-4-biphenyl-4-yl-1-methyl-piperidin-3-yl)-amide] |  | 4.29% and 2.21% and 2.27% and 2.45% and 2.50% and 6.32% and 2.96% and 5.62% and 0.525% | > 32 µM | > 32 | 
CC(=O)N1CCC(NS(=O)(=O)C(C)C)C(c2ccc(-c3ccccc3)cc2)C1 (stereo not drawn) [Example 27, propane-2-sulfonic acid(trans-1-acetyl-3-biphenyl-4-yl-piperidin-4-yl)-amide] |  | 136% and 134% and 127% | 6.92 µM | 6.92 | 
CC(C)S(=O)(=O)NC1CCNCC1c1ccc(-c2ccccc2Cl)cc1 (stereo not drawn) [Example 22, Propane-2-sulfonic acid[trans-3-(2′-chloro-biphenyl-4-yl)-piperidin-4-yl]-amide] |  | 18.9% and 23.3% and 17.1% | > 32 µM | > 32 | 
CC(=O)N1CCC(NS(=O)(=O)C(C)C)C(c2ccc(-c3ccccc3C#N)cc2)C1 (stereo not drawn) [Example 29, Propane-2-sulfonic acid[trans-1-acetyl-3-(2′-cyano-biphenyl-4-yl)-piperidin-4-yl]-amide] |  |  | 1.73 µM and 1.44 µM and 2.16 µM and 1.96 µM and 1.28 µM and 1.51 µM and 2.74 µM and 2.29 µM and 3.61 µM and 3.13 µM | 2.07 | 201% and 204% and 155% (2×) and 159% and 194% and 364% and 391% and 363% and 195% (3×) and 187% and 150% and 151% and 202%
CC(C)S(=O)(=O)NC1COCCC1(O)c1ccc(-c2ccccc2)cc1 [Example 42, Propane-2-sulfonic acid((3R,4S)-rel-4-biphenyl-4-yl-4-hydroxy-tetrahydro-pyran-3-yl)-amide] |  |  | 11.9 µM | 11.9 | 145% and 142% and 152%
